Test results reported in article PMC12974487, “Inhibition of FicD-mediated AMPylation and deAMPylation by isoprenoid diphosphates” (Proceedings of the National Academy of Sciences of the …, 2026).
Where a chain is given by its changes, count along the chain named.

What was measured:
[1] = target: T1, FicD^L258D (Homo sapiens, UniProt Q9BVA6, L258D); test: Differential scanning fluorimetry (DSF) thermal shift with FicD^L258D; assay type: binding
T1 construct: soluble ER luminal domain (residues 105 to 458) of wild-type human FicD and three mutants; 6xHis-Sumo (N, cleaved yes); made in house; host or cells: Rosetta(DE3) E. coli
T1 sequence (Q9BVA6 105-458 L258D): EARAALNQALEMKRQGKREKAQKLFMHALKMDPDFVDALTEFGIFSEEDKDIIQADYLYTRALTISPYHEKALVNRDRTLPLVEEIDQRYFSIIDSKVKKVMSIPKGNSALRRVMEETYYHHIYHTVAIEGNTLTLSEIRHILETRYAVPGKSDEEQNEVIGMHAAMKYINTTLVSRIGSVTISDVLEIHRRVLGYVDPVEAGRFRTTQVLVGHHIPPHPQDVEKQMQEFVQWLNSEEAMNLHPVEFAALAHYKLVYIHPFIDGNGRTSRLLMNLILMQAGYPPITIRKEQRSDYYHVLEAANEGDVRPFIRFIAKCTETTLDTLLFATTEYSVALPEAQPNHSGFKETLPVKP
Protocol: Differential Scanning Fluorimetry
Thermal shift assays were performed in Biorad CfX384 Touch Real-Time PCR Detection System […]
Reactions contained 50mM HEPES pH 7.4, 200mM NaCl, 200mM KCl, 200uM DTT, 5X Invitrogen Sypro Orange (Cat no. S6650), 8-9μM protein, and indicated nucleotide, cofactor, or small molecule in a total volume of 20uL. For every experiment ‘no protein’ controls were also included with the same reaction conditions. All reactions were performed in technical triplicates. Sealed plates containing reaction mixes were centrifuged for 1-5 min at 1000 RPM prior to temperature scanning (FRET channel), which was performed from 6°C […]
DSF data was analyzed with traditional methods automated in a Python package (https://pypi.org/project/instawell/). Briefly, for each temperature, the RFU values of technical triplicates are averaged. For each timepoint, the background fluorescence was subtracted using the RFU values of the ‘no protein’ control. […]
calculated. The melting temperature (Tm) is defined as the first derivative peak value. Data

[2] = target: T2, FicD^WT (Homo sapiens, UniProt Q9BVA6); test: In vitro AMPylation of Δ26hBiP^T229A by FicD^WT (Western blot); assay type: biochemical; conditions: 100 μM metabolite, 500 μM ATP, 5 mM MgCl2
T2 construct: soluble ER luminal domain (residues 105 to 458) of wild-type human FicD; 6xHis-Sumo (N, cleaved yes); made in house; host or cells: Rosetta(DE3) E. coli
T2 sequence (Q9BVA6 105-458): T1 sequence (Q9BVA6 105-458 L258D) with D154L
Source text: (§1) We next sought to assess the effects of FPP, GPP, and isoprenoid analogues on FicD activity. To accurately judge the effects of small molecules on FicD AMPylation activity, we used the ATPase defective BiP^T229A mutant as substrate ([22], [49], [50]). Loss of ATP hydrolysis by the BiP mutant ensures: 1. conformational homogeneity of the BiP protein substrate; 2. lack of BiP competition for the ATP substrate; and 3. no production of ADP, a competitive inhibitor for ATP. In addition, we deleted the first 25 amino acids of BiP for ease with its purification and solubility. […]
For AMPylation assays with FicD and BiP, Δ104FicDWT and Δ26hBiPT229A were combined at a ratio
of 1:80 in buffer containing 25mM HEPES pH 7.4, 100mM KCl, 5mM MgCl2, 500μM ATP, 1mM
DTT, and small molecule where indicated. Assays with Δ104FicDWT were incubated for 1 hour.
the amount of FicD as in reactions containing FicDWT and were incubated at 37C for 4.5 hours. […]

[3] = target: T2, FicD^WT; test: In vitro deAMPylation of Δ26hBiP^T229A-AMP by FicD^WT (Western blot); assay type: biochemical; conditions: 100 μM metabolite, 5 mM MgCl2
Source text: as §1
For deAMPylation assays with FicD and BiP, Δ26hBiPT229A was in-vitro AMPylated by […]
5mM MgCl2, 500uM ATP, 0.5% CHAPS, 1mM DTT. After one hour of incubation at 30-37C, the entire reaction mix was transferred into an Amicon 0.5mL 50kDa MWCO concentrator (cat no.
7.4/150mM NaCl/10% glycerol/1mM DTT was added to the concentrated AMPylation reaction and then spun down again at 14,000 x g at 4C for 5-10 minutes. This step was repeated four times to buffer exchange AMPylated Δ26hBiPT229A.
Δ104hFicDWT and Δ26hBiPT229A-AMP were combined at a ratio of 1:80 in buffer containing 25mM HEPES pH 7.4, 100mM KCl, 5mM MgCl2, 1mM DTT and the indicated small molecule where applicable. Reactions were incubated at 37C for 1 hour and stopped by the addition EDTA. 5X SDS sample buffer (250mM Tris pH 6.8, 10% Lithium dodecyl sulfate, 50% glycerol, 50mM DTT, 0.05% Bromophenol blue) was then added to the reactions and reactions were heated for 5 minutes at […]

[4] = target: T3, FicD^E234G (Homo sapiens, UniProt Q9BVA6, E234G); test: MIDAS metabolite screen, FicD^E234G; assay type: binding; conditions: cutoff Q < 0.05 and |Log2 corrected fold change| > 2, metabolites 5 µM
T3 construct: soluble ER luminal domain (residues 105 to 458) of wild-type human FicD and three mutants; 6xHis-Sumo (N, cleaved yes); made in house; host or cells: Rosetta(DE3) E. coli
T3 sequence (Q9BVA6 105-458 E234G): T1 sequence (Q9BVA6 105-458 L258D) with E130G, D154L
Source text: (§2) To identify small-molecule metabolite interactions with FicD, we applied an unbiased high-throughput screening approach known as MIDAS ([44]).

[5] = target: T2, FicD^WT; test: MIDAS equilibrium dialysis/mass spectrometry metabolite screen, FicD^WT; assay type: binding; conditions: cutoff Q < 0.05 and |Log2 corrected fold change| > 2, metabolites 5 µM
Source text: as §2

Structure (SMILES) | binding to FicD^L258D by DSF ([1]; presence of 5 mM MgCl2) | inhibition of AMPylation of Δ26hBiP^T229A by FicD^WT [2] | inhibition of deAMPylation activity of FicD^WT [3] | binding to FicD^L258D by DSF ([1]; absence of MgCl2) | MIDAS protein-metabolite interaction (enrichment/depletion) [4] | MIDAS protein-metabolite interaction (enrichment/depletion) [5]
CC(O)(CCOP(=O)(O)OP(=O)(O)O)CC(=O)O (stereo not shown) [MVAPP, mevalonate-pyrophosphate] | did not bind | did not | did not affect |  |  | 
CC(C)=CCC/C(C)=C/CO [geraniol] | did not bind | did not | did not affect |  |  | 
Nc1ncnc2c1ncn2[C@@H]1O[C@H](COP(=O)(O)OP(=O)(O)OP(=O)(O)O)[C@@H](O)[C@H]1O [ATP, adenosine triphosphate] | did not show saturation |  |  | did not bind | did not pass the significance cutoff | 
CC(C)=CCOP(=O)(O)OP(=O)(O)O [DMAPP, dimethylallyl-pyrophosphate] | did not bind | did not | did not affect |  |  | 
CC(C)=CCC/C(C)=C/CC/C(C)=C/CO [farnesol] | did not bind | did not | did not affect |  |  | 
CC(C)=CCC/C(C)=C/COP(=O)(O)O [GMP, geranyl-monophosphate] | did not bind | did not | did not affect |  |  | 
CC(C)=CCC/C(C)=C\CC/C(C)=C\COP(=O)(O)O [FMP, farnesyl-monophosphate] | did not bind | did not | did not affect |  |  | 
O=CC(=O)O [glyoxylic acid] |  |  |  |  |  | significantly depleted
